According to patent US20250003877A1, “Silyl Bridged Dyes” (priority 2021, published 2025):
Where two headings read alike, the source gives them in different places.

Settings: for brighter than dimethylsilyl counterpart: vs 001 (for 002, 009) or vs 016 (for 017)

Row | SMILES | Brightness (ϕ × ε) (PBS) | Em (nm) (PBS) | Ex (nm) (PBS) | ε (M^−1 cm^−1) (PBS) | ϕ (quantum yield) (PBS, pH 7.4) | brighter than dimethylsilyl counterpart (PBS) [%] | red-shift compared to dimethylsilyl counterpart (vs 001 (for 007) or vs 020 (for 021, 022), excitation and emission) | quantum yield (pH 3 acetate buffer) | Brightness (ϕ × ε) (EtOH) | fluorescence and scatter (EtOH) | ε (M^−1 cm^−1) (EtOH) | ϕ (quantum yield) (EtOH) | Rayleigh scatter (PBS, 1 μM concentration)
1 | CC[Si]1(CC)C2=CC(=[N+](C)C)C=CC2=C(c2ccccc2C)c2ccc(N(C)C)cc21 [Compound 002, N-(7-(Dimethylamino)-5,5-diethyl-10-(o-tolyl)dibenzo[b,e]silin-3(5H)-ylidene)-N-methylmethanaminium] | 58,540 | 664 | 648 | 164,900 M^−1 cm^−1 | 0.36 | 30 |  |  |  |  |  |  | 
2 | C=C[Si]1(C)C2=CC(=[N+](C)C)C=CC2=C(c2ccccc2C)c2ccc(N(C)C)cc21 (stereo not drawn) [Compound 003, N-(7-(Dimethylamino)-5-methyl-10-(o-tolyl)-5-vinyldibenzo[b,e]silin-3(5H)-ylidene)-N-methylmethanaminium] | 48,924 | 668 | 651 | 141,400 M^−1 cm^−1 | 0.35 |  |  |  |  |  |  |  | 
3 | Cc1ccccc1C1=C2C=CC(=[N+](C)C)C=C2[Si](C)(c2ccccc2)c2cc(N(C)C)ccc21 (stereo not drawn) [Compound 004, N-(7-(Dimethylamino)-5-methyl-5-phenyl-10-(o-tolyl)dibenzo[b,e]silin-3(5H)-ylidene)-N-methylmethanaminium] | 34,203 | 670 | 657 | 99,140 M^−1 cm^−1 | 0.35 |  |  |  |  |  |  |  | 
4 | C=C[Si]1(c2ccccc2)C2=CC(=[N+](C)C)C=CC2=C(c2ccccc2C)c2ccc(N(C)C)cc21 (stereo not drawn) [Compound 005, N-(7-(Dimethylamino)-5-phenyl-10-(o-tolyl)-5-vinyldibenzo[b,e]silin-3(5H)-ylidene)-N-methylmethanaminium] | 53,499 | 676 | 658 | 150,700 M^−1 cm^−1 | 0.36 |  |  |  |  |  |  |  | 
5 | C=C[Si]1(C=C)C2=CC(=[N+](C)C)C=CC2=C(c2ccccc2C)c2ccc(N(C)C)cc21 [Compound 006, N-(7-(Dimethylamino)-10-(o-tolyl)-5,5-divinyldibenzo[b,e]silin-3(5H)-ylidene)-N-methylmethanaminium] | 56,671 | 672 | 657 | 158,300 M^−1 cm^−1 | 0.36 |  |  |  |  |  |  |  | 
6 | Cc1ccccc1C1=C2C=CC(=[N+](C)C)C=C2[Si](c2ccccc2)(c2ccccc2)c2cc(N(C)C)ccc21 [Compound 007, N-(7-(Dimethylamino)-5,5-diphenyl-10-(o-tolyl)dibenzo[b,e]silin-3(5H)-ylidene)-N-methylmethanaminium] | 41,952 | 677 | 663 | 120,900 M^−1 cm^−1 | 0.35 |  | approximately 15 nm |  |  |  |  |  | 
7 | Cc1ccccc1C1=C2C=CC(=[N+](C)C)C=C2[Si](C)(c2cccc(N(C)C)c2)c2cc(N(C)C)ccc21 (stereo not drawn) [Compound 008, N-(7-(Dimethylamino)-5-(3-(dimethylamino)phenyl)-5-methyl-10-(o-tolyl)dibenzo[b,e]silin-3(5H)-ylidene)-N-methylmethanaminium] | 3700 | 668 | 651 | 154,200 M^−1 cm^−1 | 0.02 |  |  | 0.31 |  |  |  |  | 
8 | Cc1ccccc1C1=C2C=CC(=[N+](C)C)C=C2[Si](C)(CCCCl)c2cc(N(C)C)ccc21 (stereo not drawn) [Compound 009, N-(5-(3-Chloropropyl)-7-(dimethylamino)-5-methyl-10-(o-tolyl)dibenzo[b,e]silin-3(5H)-ylidene)-N-methylmethanaminium] | 64,113 | 665 | 650 | 180,600 M^−1 cm^−1 | 0.36 | 50 |  |  |  |  |  |  | 
9 | Cc1ccccc1C1=C2C=CC(=[N+](C)C)C=C2[Si](C)(CCC(F)(F)F)c2cc(N(C)C)ccc21 (stereo not drawn) [Compound 010, N-(7-(Dimethylamino)-5-methyl-10-(o-tolyl)-5-(3,3,3-trifluoropropyl)dibenzo[b,e]silin-3(5H)-ylidene)-N-methylmethanaminium] | 39,854 | 666 | 650 | 112,900 M^−1 cm^−1 | 0.35 |  |  |  |  |  |  |  | 
10 | CCCCCCCC[Si]1(CCCCCCCC)C2=CC(=[N+](C)C)C=CC2=C(c2ccccc2C)c2ccc(N(C)C)cc21 [Compound 011, N-(7-(Dimethylamino)-5,5-dioctyl-10-(o-tolyl)dibenzo[b,e]silin-3(5H)-ylidene)-N-methylmethanaminium] |  | 666 | 651 | low extinction coefficient | 0.18 |  |  |  | 89,091 | bright fluorescence and no scatter peak | 156,300 M^−1 cm^−1 | 0.57 | pronounced Rayleigh scatter peak
11 | Cc1ccccc1C1=C2C=CC(=[N+](C)C)C=C2[Si](C)([C@H]2CC3C=CC2C3)c2cc(N(C)C)ccc21 (stereo partly drawn) [Compound 013, N-(5-((2S)-Bicyclo[2.2.1]hept-5-en-2-yl)-7-(dimethylamino)-5-methyl-10-(o-tolyl)dibenzo[b,e]silin-3(5H)-ylidene)-N-methylmethanaminium] | 60,800 | 666 | 649 | 160,000 M^−1 cm^−1 | 0.38 |  |  |  |  |  |  |  | 
12 | Cc1ccccc1C1=C2C=CC(=[N+](C)C)C=C2[Si]2(CCCCC2)c2cc(N(C)C)ccc21 [Compound 014, N-(7-(Dimethylamino)-10-(o-tolyl)-3H-spiro[dibenzo[b,e]siline-5,1′-silinan]-3-ylidene)-N-methylmethanaminium] | 56,610 | 666 | 650 | 170,000 M^−1 cm^−1 | 0.33 |  |  |  |  |  |  |  | 
13 | C=C[Si]1(C=C)c2cc3c(cc2C(c2ccccc2C)=c2cc4c(cc21)=[N+](C)CCC4)CCCN3C [Compound 017, 1,11-Dimethyl-6-(o-tolyl)-13,13-divinyl-2,3,4,8,9,10,11,13-octahydrosilino[3,2-g:5,6-g′]diquinolin-1-ium] | 75,104 | 702 | 683 | 234,700 M^−1 cm^−1 | 0.32 | 60 |  |  |  |  |  |  | 
14 | Cc1ccccc1C1=c2cc3c(cc2[Si](c2ccccc2)(c2ccccc2)c2cc4c(cc21)CCCN4C)=[N+](C)CCC3 [Compound 018, 1,11-Dimethyl-13,13-diphenyl-6-(o-tolyl)-2,3,4,8,9,10,11,13-octahydrosilino[3,2-g:5,6-g′]diquinolin-1-ium] | 41,524 | 710 | 690 | 148,300 M^−1 cm^−1 | 0.28 |  |  |  |  |  |  |  | 
15 | Cc1ccccc1C1=c2cc3c(cc2[Si](C)(CCCCl)c2cc4c(cc21)CCCN4C)=[N+](C)CCC3 (stereo not drawn) [Compound 019, 13-(3-Chloropropyl)-1,11,13-trimethyl-6-(o-tolyl)-2,3,4,8,9,10,11,13-octahydrosilino[3,2-g:5,6-g′]diquinolin-1-ium] | 41,250 | 694 | 677 | 125,000 M^−1 cm^−1 | 0.33 |  |  |  |  |  |  |  | 
16 | C=C[Si]1(C=C)c2cc3c(cc2C(c2ccccc2C)=c2cc4c(cc21)=[N+](C)CC4)CCN3C [Compound 021, 1,9-Dimethyl-5-(o-tolyl)-11,11-divinyl-2,3,7,8,9,11-hexahydrosilino[3,2-f:5,6-f]diindol-1-ium] | 17,693 | 728 | 702 | 136,100 M^−1 cm^−1 | 0.13 |  |  |  |  |  |  |  | 
17 | Cc1ccccc1C1=c2cc3c(cc2[Si](c2ccccc2)(c2ccccc2)c2cc4c(cc21)CCN4C)=[N+](C)CC3 [Compound 022, 1,9-Dimethyl-11,11-diphenyl-5-(o-tolyl)-2,3,7,8,9,11-hexahydrosilino[3,2-f:5,6-f′]diindol-1-ium] | 12,870 | 737 | 710 | 117,000 M^−1 cm^−1 | 0.11 |  |  |  |  |  |  |  | 
18 | Cc1ccccc1C1=c2cc3c(cc2[Si](C)(CCCCl)c2cc4c(cc21)CCN4C)=[N+](C)CC3 (stereo not drawn) [Compound 023, 11-(3-Chloropropyl)-1,9,11-trimethyl-5-(o-tolyl)-2,3,7,8,9,11-hexahydrosilino[3,2-f:5,6-f]diindol-1-ium] | 21,947 | 717 | 693 | 129,100 M^−1 cm^−1 | 0.17 |  |  |  |  |  |  |  | 
19 | Cc1ccccc1C1=C2C=CC(=[N+]3CCC3)C=C2[Si](C)(C)c2cc(N3CCC3)ccc21 [Compound 024, 1-(7-(Azetidin-l-yl)-5,5-dimethyl-10-(o-tolyl)dibenzo[b,e]silin-3(5H)-ylidene)azetidin-1-ium, reference compound] | 55,460 | 663 | 649 | 118,000 M^−1 cm^−1 | 0.47 |  |  |  |  |  |  |  | 
20 | Cc1ccccc1C1=C2C=CC(=[N+]3CCC3)C=C2[Si](c2ccccc2)(c2ccccc2)c2cc(N3CCC3)ccc21 [Compound 025, 1-(7-(Azetidin-1-yl)-5,5-diphenyl-10-(o-tolyl)dibenzo[b,e]silin-3(5H)-ylidene)azetidin-1-ium] | 63,222 | 680 | 663 | 154,200 M^−1 cm^−1 | 0.41 |  |  |  |  |  |  |  | 
21 | C=C[Si]1(C=C)C2=CC(=[N+]3CCC3)C=CC2=C(c2ccccc2C)c2ccc(N3CCC3)cc21 [Compound 026, 1-(7-(Azetidin-1-yl)-10-(o-tolyl)-5,5-divinyldibenzo[b,e]silin-3(5H)-ylidene)azetidin-1-ium] | 48,268 | 673 | 658 | 109,700 M^−1 cm^−1 | 0.44 |  |  |  |  |  |  |  | 
